According to US12152035B2, “Androgen receptor binding molecule and use thereof” (Industrial Technology Research Institute, priority 2020, dated 2024):

Legend:
Assay type in all cases: cell-based
CWR22RV1 cells = assay: Cytotoxicity assay (AlamarBlue, 72 hours); settings: 72 hours treatment, concentration not given
Experimental: (§1) Compound stock solutions of 10 mM were prepared with 100% DMSO and shaken for 10-15 seconds. The compound stock solutions were centrifuged at 12000 rpm (13523 rcf.) for 5 minutes and record the turbidity or precipitation state with a photo snapshot. The compound stock solutions were resuspended by shaking for 10-15 seconds, and serially diluted with 100% DMSO solution to make the compound concentration to 1000 μM, then to 100, 10, and 1 μM, and then 10-fold diluted with medium to 100, 10, 1, 0.1 μM (final 10% DMSO/medium) to complete compound test sample preparation. Compound treatment was performed by adding 10 μL of compound test sample to cells in each well of a 96-well plate (final 1% DMSO/medium).
(§2) Cells (CWR22Rv1 cells or VCaP cells) were cultured in RPMI-1640 medium supplemented with 10% fetal bovine serum, 10,000 U/mL penicillin and 10,000 μg/mL streptomycin. Cells were cultured at 37° C. in a humidified 5% CO2 incubator.
(§3) Cells were seeded in a 96-well plate (1×10^4 cells/well). 10 μL of the above compound test sample was added to each well of the 96-well plate on next day. After 72 hours of compound treatment, 10 μL of AlamaBlue reagent was added to each of 96 wells and incubated for 4 hours. The fluorescence value at Ex/Em=560/590 nm was read with a microplate reader, and the cytotoxicity (%) was calculated.
(§4) According to the above method, the compounds prepared above were subjected to cytotoxicity test with CWR22RV1 cells and VCaP cells.

VCaP cells = assay: Cytotoxicity assay (AlamarBlue, 72 hours); settings: 72 hours treatment, concentration not given
Experimental: as §1, §2, §3, §4

[1] = tested on: full-length androgen receptor; assay: Western blot: degradation of full-length androgen receptor in CWR22RV1 cells; settings: overnight
Experimental: CWR22Rv1 cells were maintained in RPMI medium supplemented with 10% fetal bovine serum and 1% penicillin-streptomycin at 37° C. in a humidified environment with 5% CO2.
CWR22Rv1 (5×10^5 cells) were seeded in each well of a 6-well plate and incubated overnight. Before compound treatment, the medium in the wells was replaced with a new medium. Cells were treated with different concentrations of compound overnight. Subsequently, cells were harvested by adding cold PBS and scraping cells. Cells were lysed according to general procedures and Western blot assays were performed to assess the ability of compounds to degrade full-length androgen receptor or androgen receptor splice variant 7. The cells or cell lysates were kept on ice at all times.
The following reagents were used in this experiment. Phosphate buffered saline (PBS) (Hyclone, SH30028.02), fetal bovine serum (Hyclone, SH30084.23, Lot AC14563276), penicillin-streptomycin solution (Hyclone, SV30010), 0.5% Trypsin-EDTA (Gibco, 15400-054), CST Lysis Buffer (CST-9803), Halt™ Protease and Phosphatase Inhibitor (ThermoFisher, 78442), Coomassie (Bradford) Protein Assay (Coomassie (Bradford) protein assay) (ThermoFisher, 23200), androgen receptor antibody (Cell Siginaling, CST-5153S), GAPDH antibody (Cell Siginaling, CST-5174S), HRP-goat-anti-rabbit (Jackson Immuno Research, 111-035-003), skim milk, SuperSignal West Pico Maximum Sensitivity substrate (ThermoFisher, 34080).
The compound prepared above was analyzed for its ability to degrade full-length androgen receptor and androgen receptor splice variant 7 in CWR22RV1 cells by Western blotting according to the method shown in item B.3-2 above.

[2] = compound concentration 0.1 (unit not given)
[3] = compound concentration 1 (unit not given)
[4] = compound concentration 10 (unit not given)

| SMILES | Cytotoxicity, CWR22RV1 cells (cell viability %) (CWR22RV1 cells) | Cytotoxicity, VCaP cells (cell viability %) (VCaP cells) | Degradation ability for full-length androgen receptor (residual rate %) [1, 2] | Degradation ability for full-length androgen receptor (residual rate %) [1, 3] | Degradation ability for full-length androgen receptor (residual rate %) [1, 4] |
| --- | --- | --- | --- | --- | --- |
| O=C1CCC(N2Cc3c(NC(=O)COCCCCOc4ccc(C5CCN(C6=Nn7c(nnc7C(F)(F)F)CC6)CC5)cc4)cccc3C2=O)C(=O)N1 (centres unmarked) [Compound 30, N-(2-(2,6-dioxopiperidin-3-yl)-1-oxoisoindolin-4-yl)-2-(4-(4-(1-(3-(trifluoromethyl)-7,8-dihydro-[1,2,4]triazolo[4,3-b]pyridazin-6-yl)piperidin-4-yl)phenoxy)butoxy)acetamide] | +++ (<40% : +++) | +++ (<40% : +++) | ++ (40-60%: ++) | +++ (<40%: +++) | +++ (<40%: +++) |
| Cc1ncsc1-c1ccc(CNC(=O)[C@H]2C[C@@H](O)CN2C(=O)[C@@H](NC(=O)C2(F)CC2)C(C)(C)C)c(OCCCCCCCOc2ccc(C3CCN(C4=Nn5c(nnc5C(F)(F)F)CC4)CC3)cc2)c1 [Compound 36, (2R,4R)-1-((S)-2-(1-fluorocyclopropane-1-carboxamido)-3,3-dimethylbutanoyl)-4-hydroxy-N-(4-(4-methylthiazol-5-yl)-2-((7-(4-(1-(3-(trifluoromethyl)-7,8-dihydro-[1,2,4]triazolo[4,3-b]pyridazin-6-yl)piperidin-4-yl)phenoxy)heptyl)oxy)benzyl)pyrrolidine-2-carboxamide] | +++ (<40% : +++) | +++ (<40% : +++) | − (>80%; −) | + (60-80%: +) | + (60-80%: +) |
| Cc1ncsc1-c1ccc(CNC(=O)[C@@H]2C[C@H](O)CN2C(=O)[C@@H](NC(=O)COCCCCOc2ccc(C3CCN(c4ccc5nnc(C(F)(F)F)n5n4)CC3)cc2)C(C)(C)C)cc1 [Compound 37, (2S,4S)-1-((S)-3,3-dimethyl-2-(2-(4-(4-(1-(3-(trifluoromethyl)-[1,2,4]triazolo[4,3-b]pyridazin-6-yl)piperidin-4-yl)phenoxy)butoxy)acetamido)butanoyl)-4-hydroxy-N-(4-(4-methylthiazol-5-yl)benzyl)pyrrolidine-2-carboxamide] | +++ (<40% : +++) | +++ (<40% : +++) | − (>80%; −) | + (60-80%: +) | +++ (<40%: +++) |
| O=C1CCC(N2Cc3c(NC(=O)COCCCCOc4ccc(C5CCN(c6ccc7nnc(C(F)(F)F)n7n6)CC5)cc4)cccc3C2=O)C(=O)N1 (centres unmarked) [Compound 38, N-(2-(2,6-dioxopiperidin-3-yl)-1-oxoisoindolin-4-yl)-2-(4-(4-(1-(3-(trifluoromethyl)-[1,2,4]triazolo[4,3-b]pyridazin-6-yl)piperidin-4-yl)phenoxy)butoxy)acetamide] | +++ (<40% : +++) | +++ (<40% : +++) | ++ (40-60%: ++) | +++ (<40%: +++) | +++ (<40%: +++) |
